Laboratory results reported in article PMC9737391, “Trifluoromethylcinnamanilide Michael Acceptors for Treatment of Resistant Bacterial Infections” (International Journal of Molecular Sciences, 2022).
Values after ≈ are worked out from the molar mass of the structure shown. Values joined by “and” are separate entries in the source; they are usually repeats but may differ in a detail not shown here. Identical values can stand only once.

Columns and labels:
[1] = Lipophilicity determination by RP-HPLC; type: physicochemical; settings: RP-HPLC, logarithm of capacity factor k
Procedure: It is evident from the graphs in Figure 1 that the correlation coefficients of the dependences of log k/log D6.5/log D7.4 have a value of r = 0.999 (n = 32), which means that the investigated compounds behave insignificantly differently in aqueous media with different pH. Moreover, lipophilicity was calculated as log P and Clog P using two prediction programs. […] Therefore, only log P values predicted by ACD/Percepta can be used for correlations with experimental values. These matches are shown in the graphs in Figure 2, and according to the correlation coefficient r~0.940 (n = 32), it can be argued that even the predicted lipophilicity values correlate with the experimentally measured ones. However, the largest variations were observed (no difference for series 1, 2) for compounds substituted with 2-Cl, 2-CF3, 2,5-Cl, 4-F, 4-CF3, and 3,5-F, 3,5-Cl. These are mainly substituents capable of forming hydrogen and other types of non-bonding interactions both with the surrounding environment and within the molecule. Overall, series 1 (3-CF3) is less lipophilic than series 2 (4-CF3), but the differences in the experimental data are insignificant. Unsubstituted derivatives 1a/2a are the least lipophilic compounds, while derivatives 1o/2o (3,5-Cl) and 1p/2p (3,5-CF3) are the most lipophilic compounds.
Experimental determination of lipophilicity values (log k, log D6.5, and log D7.4) was performed under the same conditions and on the same device as described by Strharsky et al..

[2] = system: Staphylococcus aureus ATCC 29213; assay: MIC, microtitration broth method; type: cell-based; settings: ATCC29213, S. aureus ATCC 29213
[3] = system: methicillin-resistant S. aureus SA 3202 (MRSA1); assay: MIC, microtitration broth method; type: cell-based; settings: Staphylococcus aureus; MRSA SA 3202
[4] = system: methicillin-resistant S. aureus SA 630 (MRSA2); assay: MIC, microtitration broth method; type: cell-based; settings: Staphylococcus aureus; MRSA SA 630
[5] = system: methicillin-resistant S. aureus 63718 (MRSA3); assay: MIC, microtitration broth method; type: cell-based; settings: Staphylococcus aureus; MRSA 63718
M. smegmatis ATCC 700084 = assay: In vitro antimycobacterial evaluation (MIC); type: cell-based, Mycobacterium smegmatis; settings: Mycolicibacterium smegmatis, ATCC700084
[6] = system: Staphylococcus aureus ATCC 29213; assay: MBC, agar aliquot subculture method; type: cell-based; settings: ATCC29213, S. aureus ATCC 29213
[7] = system: methicillin-resistant S. aureus SA 3202 (MRSA1); assay: MBC, agar aliquot subculture method; type: cell-based; settings: Staphylococcus aureus; MRSA SA 3202
[8] = system: methicillin-resistant S. aureus SA 630 (MRSA2); assay: MBC, agar aliquot subculture method; type: cell-based; settings: Staphylococcus aureus; MRSA SA 630
[9] = system: methicillin-resistant S. aureus 63718 (MRSA3); assay: MBC, agar aliquot subculture method; type: cell-based; settings: Staphylococcus aureus; MRSA 63718
[10] = system: human monocytic leukemia cell line THP-1; assay: In vitro cell viability (cytotoxicity screening); type: cell-based; settings: 24 h, medium with 10% FBS, ± SD, n = 6
Procedure: The investigated anilides can be divided into three groups. […] Higher concentrations (than 10 or 30 µM) were not possible to evaluate due to precipitation of the tested compounds in water medium. Based on all these observations, it can be concluded that the high antimicrobial activity of 3,5-CF3-substituted compounds is associated with significant cytotoxic effect against eukaryotic cells. On the other hand, the other still effective compounds, especially agents 1j and 1o, have an insignificant toxic effect, which makes them interesting for further study.
Human monocytic leukemia THP-1 cells obtained from the European Collection of Cell Cultures (ECACC, Salisbury, UK) were used for in vitro antiproliferative assays. A recently described procedure was used.

S. aureus ATCC 29213 = assay: MTT assay, inhibition of bacterial respiration; type: cell-based, Staphylococcus aureus
Description: The MTT assay can be used to assess cell growth by measuring respiration. Respiratory activity of bacterial cells (which is finally reflected in their viability) less than 70% after exposure to the MIC values for each tested compound is considered as a positive result of this assay. This low level of cell oxidative metabolism indicates inhibition of cell growth by inhibition of respiration. The lowest multiples of MIC values that achieved more than 70% inhibition of S. aureus ATCC 29213 viability (%) are shown in Table 3.
The percent inhibition of respiration of S. aureus ATCC 29213 was determined through the MTT assay. The assay was performed as described recently. The percent viability is calculated through the comparison of a measured value and that of the uninhibited control: % viability = OD570E/OD570P × 100, where OD570E is the reading from the compound-exposed cells, while OD570P is the reading from the uninhibited cells (positive control). Cytotoxic potential is determined by a percent viability of <70% [46, 47].

[11] = system: M. smegmatis and M. marinum; assay: Antimycobacterial activity, summary over both strains; type: cell-based; settings: average over the named compounds and strains; read-out: average MIC against M. smegmatis and M. marinum
[12] = system: Enterococcus faecalis ATCC 29212; assay: MIC, microtitration broth method; type: cell-based; settings: ATCC29212, E. faecalis reference strain
[13] = system: vancomycin-resistant E. faecalis VRE 342B (VRE1); assay: MIC, microtitration broth method; type: cell-based, Enterococcus faecalis
[14] = system: vancomycin-resistant E. faecalis VRE 368 (VRE2); assay: MIC, microtitration broth method; type: cell-based, Enterococcus faecalis
[15] = system: vancomycin-resistant E. faecalis VRE 725B (VRE3); assay: MIC, microtitration broth method; type: cell-based, Enterococcus faecalis
[16] = system: Mycobacterium marinum CAMP 5644; assay: In vitro antimycobacterial evaluation (MIC); type: cell-based; settings: for MIC MM: M. marinum CAMP 5644; for MIC: Mycobacterium marinum, CAMP5644, M. marinum CAMP 5644
[17] = system: Enterococcus faecalis ATCC 29212; assay: MBC, agar aliquot subculture method; type: cell-based; settings: ATCC29212, E. faecalis reference strain
[18] = system: vancomycin-resistant E. faecalis VRE 342B (VRE1); assay: MBC, agar aliquot subculture method; type: cell-based, Enterococcus faecalis
[19] = system: vancomycin-resistant E. faecalis VRE 368 (VRE2); assay: MBC, agar aliquot subculture method; type: cell-based, Enterococcus faecalis
[20] = system: vancomycin-resistant E. faecalis VRE 725B (VRE3); assay: MBC, agar aliquot subculture method; type: cell-based, Enterococcus faecalis
S. aureus/MRSA = assay: Antistaphylococcal activity, summary over strains; type: cell-based, Staphylococcus aureus; settings: for MIC: Staphylococcus aureus, MRSA, average over the named compounds and strains, read-out: average MIC against S. aureus/MRSA; for antistaphylococcal MICs/MBCs: range over S. aureus and MRSA isolates and over the named compounds
E. faecalis/VRE = assay: Anti-enterococcal activity, summary over strains; type: cell-based, Enterococcus faecalis; settings: for MIC: Enterococcus faecalis, VRE, average over the named compounds and strains, read-out: average MIC against E. faecalis/VRE; for anti-enterococcal MICs/MBCs: range over E. faecalis and VRE isolates and over the named compounds

Compound | log k [1] | MIC [2] | MIC [3] | MIC [4] | MIC [5] | MIC (M. smegmatis ATCC 700084) | MBC [6] | MBC [7] | MBC [8] | MBC [9] | IC50 [10] | Conc.: lowest multiple of MIC with at least 70% inhibition of respiratory activity (S. aureus ATCC 29213) | Conc.: the same concentration as multiple of MBC (S. aureus ATCC 29213) | MIC [11] | melting point | MIC [12] | MIC [13] | MIC [14] | MIC [15] | MIC MM [16] | further results
O=C(/C=C/c1cccc(C(F)(F)F)c1)Nc1cc(C(F)(F)F)cc(C(F)(F)F)c1 [1p, (2E)-N-[3,5-bis(Trifluoromethyl)phenyl]-3-[3-(trifluoromethyl)phenyl]prop-2-enamide] | 1.3648 | 1.17 µM (≈ 0.5 µg/mL) | 2.34 µM (≈ 1 µg/mL) | 1.17 µM (≈ 0.5 µg/mL) | 0.585 µM (≈ 0.25 µg/mL) | 9.36 µM (≈ 4 µg/mL) | 1.17 µM (≈ 0.5 µg/mL) | 2.34 µM (≈ 1 µg/mL) | 1.17 µM (≈ 0.5 µg/mL) | 1.17 µM (≈ 0.5 µg/mL) | 6.7 ± 1.1 µM | 1× MIC (1× MBC) | 1× MIC (1× MBC) | ~4.1 µM (≈ 1.75 µg/mL) | 147 to 149 °C |  |  |  |  |  | 
O=C(/C=C/c1ccc(C(F)(F)F)cc1)Nc1cc(C(F)(F)F)cc(C(F)(F)F)c1 [2p, (2E)-N-[3,5-bis(Trifluoromethyl)phenyl]-3-[4-(trifluoromethyl)phenyl]prop-2-enamide] | 1.3665 | 0.146 µM (≈ 0.0624 µg/mL) | 0.585 µM (≈ 0.25 µg/mL) | 0.293 µM (≈ 0.125 µg/mL) | 0.293 µM (≈ 0.125 µg/mL) | 1.17 µM (≈ 0.5 µg/mL) | 0.146 µM (≈ 0.0624 µg/mL) | 0.585 µM (≈ 0.25 µg/mL) | 0.585 µM (≈ 0.25 µg/mL) | 0.293 µM (≈ 0.125 µg/mL) | 8.9 ± 1.3 µM | 2× MIC (2× MBC) | 2× MIC (2× MBC) | ~4.1 µM (≈ 1.75 µg/mL) | 207 to 209 °C | 2.34 µM (≈ 1 µg/mL) | 2.34 µM (≈ 1 µg/mL) | 4.68 µM (≈ 2 µg/mL) | 2.34 µM (≈ 1 µg/mL) | 0.293 – µM | MIC [16]: 0.29 to 22.2 µM (≈ 0.124 to 9.49 µg/mL); MBC [17]: 4.68 µM (≈ 2 µg/mL); MBC [18]: 4.68 µM (≈ 2 µg/mL); MBC [19]: 9.36 µM (≈ 4 µg/mL); MBC [20]: 2.34 µM (≈ 1 µg/mL); MIC (S. aureus/MRSA): ~1.4 µM (≈ 0.598 µg/mL); antistaphylococcal MICs/MBCs (S. aureus/MRSA): 0.15 to 5.57 µM and 0.146 to 5.57 µM; MIC (E. faecalis/VRE): ~15 µM (≈ 6.41 µg/mL); anti-enterococcal MICs/MBCs (E. faecalis/VRE): 2.34 to 44.5 µM
O=C(/C=C/c1cccc(C(F)(F)F)c1)Nc1ccc(C(F)(F)F)cc1 [1j, (2E)-3-[3-(Trifluoromethyl)phenyl]-N-[4-(trifluoromethyl)phenyl]prop-2-enamide] | 0.9247 | 2.78 µM (≈ 0.999 µg/mL) | 2.78 µM (≈ 0.999 µg/mL) | 1.39 µM (≈ 0.499 µg/mL) | 2.78 µM (≈ 0.999 µg/mL) | 11.1 µM (≈ 3.99 µg/mL) | 2.78 µM (≈ 0.999 µg/mL) | 2.78 µM (≈ 0.999 µg/mL) | 1.39 µM (≈ 0.499 µg/mL) | 5.57 µM (≈ 2 µg/mL) | > 30 µM | 0.5× MIC (0.5× MBC) | 0.5× MIC (0.5× MBC) | ~4.1 µM (≈ 1.47 µg/mL) | 118 to 120 °C | 22.3 µM (≈ 8.01 µg/mL) | 22.3 µM (≈ 8.01 µg/mL) | 44.5 µM (≈ 16 µg/mL) | 22.3 µM (≈ 8.01 µg/mL) | 0.348 – µM | MIC [16]: 0.29 to 22.2 µM (≈ 0.104 to 7.98 µg/mL); MBC [17]: 22.3 µM (≈ 8.01 µg/mL); MBC [18]: 22.3 µM (≈ 8.01 µg/mL); MBC [19]: 44.5 µM (≈ 16 µg/mL); MBC [20]: 22.3 µM (≈ 8.01 µg/mL); MIC (S. aureus/MRSA): ~1.4 µM (≈ 0.503 µg/mL); antistaphylococcal MICs/MBCs (S. aureus/MRSA): 0.15 to 5.57 µM and 0.146 to 5.57 µM; MIC (E. faecalis/VRE): ~15 µM (≈ 5.39 µg/mL); anti-enterococcal MICs/MBCs (E. faecalis/VRE): 2.34 to 44.5 µM
